Source: patent US6914045B2, “Glycopeptide antibiotics” (Wyeth Holdings Corporation, priority 2001, dated 2005)

What was measured:
Assay in all cases: in vitro antibacterial evaluation, MIC by broth dilution
Type in all cases: cell-based
Staphylococcus sp. = settings: broth dilution, 18 hours at 35° C.; for MIC Staphylococcus aureus (ATCC 29213): strain ATCC 29213; for MIC Staphylococcus aureus (GC 1131): strain GC 1131; for MIC Staphylococcus aureus (GC 3051): strain GC 3051; for MIC Staphylococcus aureus (GC 3053): strain GC 3053; for MIC Staphylococcus aureus (GC 4541): strain GC 4541; for MIC Staphylococcus aureus (GC 4542): strain GC 4542; for MIC Staphylococcus aureus-SMITH (GC 4543): strain GC 4543; for MIC Staphylococcus aureus (GC 4544): strain GC 4544; for MIC Staphylococcus aureus (GC 4545): strain GC 4545; for MIC Staphylococcus haemolyticus (GC 4546): strain GC 4546; for MIC Coagulase Negative Staphylococcus (GC 4547): strain GC 4547; for MIC Coagulase Negative Staphylococcus (GC 4548): strain GC 4548; for MIC Coagulase Negative Staphylococcus (GC 4549): strain GC 4549; for MIC Coagulase Negative Staphylococcus (GC 4551): strain GC 4551; for MIC Coagulase Negative Staphylococcus (GC 6257): strain GC 6257
Summary of the method: (§1)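 Broth dilution per NCCLS standard M7-A2 in Muller-Hinton II […], with an inoculum of 5×10^5 CFU/mL and antibiotic spanning 64-0.06 μg/mL. The MIC is the lowest concentration that inhibits growth of the organism.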

Enterococcus sp. = settings: broth dilution, 18 hours at 35° C.
Summary of the method: as §1

Streptococcus sp. = settings: broth dilution, 18 hours at 35° C.
Summary of the method: as §1

Escherichia coli = settings: 18 hours at 35° C.

CC(c1ccccc1)C1NC(=O)CNC(=O)C(CO)NC(=O)C(C(O)C2CNC(=N)N2C2OC(CO)C(O)C(O)C2O)NC(=O)C(C(O)C2CNC(=N)N2)NC(=O)C(Cc2ccc(OC3OC(CO)C(OC4OC5COC(C)(c6ccc(F)cc6)OC5C(O)C4O)C(O)C3O)cc2)NC1=O (stereo not drawn) [Example 216]
16 µg/mL: MIC Escherichia coli (GC 4559) (Escherichia coli)
4 µg/mL: MIC Enterococcus avium (GC 4558) (Enterococcus sp.) | MIC Enterococcus faecalis (ATCC 29212) (Enterococcus sp.) | MIC Enterococcus faecalis (GC 2242) (Enterococcus sp.) | MIC Enterococcus faecalis (GC 2691) (Enterococcus sp.) | MIC Enterococcus faecalis (GC 3059) (Enterococcus sp.) | MIC Enterococcus faecalis (GC 4552) (Enterococcus sp.) | MIC Enterococcus faecalis (GC 4553) (Enterococcus sp.) | MIC Enterococcus faecalis (GC 4554) (Enterococcus sp.) | MIC Enterococcus faecalis (GC 6189) (Enterococcus sp.) | MIC Enterococcus faecium (GC 2243) (Enterococcus sp.) | MIC Enterococcus faecium (GC 4556) (Enterococcus sp.) | MIC Enterococcus faecium (GC 4557) (Enterococcus sp.) | MIC Enterococcus faecalis (ATCC 29212) (Enterococcus sp.; inoculum 5×10^5 CFU/mL, strain ATCC 29212) | MIC Enterococcus faecalis (GC 2242) (Enterococcus sp.; inoculum 5×10^5 CFU/mL, strain GC 2242) | MIC Enterococcus faecium (GC 2243) (Enterococcus sp.; inoculum 5×10^5 CFU/mL, strain GC 2243) | MIC Enterococcus faecalis (GC 2691) (Enterococcus sp.; inoculum 5×10^5 CFU/mL, strain GC 2691) | MIC Enterococcus faecalis (GC 3059) (Enterococcus sp.; inoculum 5×10^5 CFU/mL, strain GC 3059) | MIC Enterococcus faecalis (GC 4552) (Enterococcus sp.; inoculum 5×10^5 CFU/mL, strain GC 4552) | MIC Enterococcus faecalis (GC 4553) (Enterococcus sp.; inoculum 5×10^5 CFU/mL, strain GC 4553) | MIC Enterococcus faecalis (GC 4554) (Enterococcus sp.; inoculum 5×10^5 CFU/mL, strain GC 4554) | MIC Enterococcus faecium (GC 4556) (Enterococcus sp.; inoculum 5×10^5 CFU/mL, strain GC 4556) | MIC Enterococcus faecium (GC 4557) (Enterococcus sp.; inoculum 5×10^5 CFU/mL, strain GC 4557) | MIC Enterococcus avium (GC 4558) (Enterococcus sp.; inoculum 5×10^5 CFU/mL, strain GC 4558) | MIC Enterococcus faecalis (GC 6189) (Enterococcus sp.; inoculum 5×10^5 CFU/mL, strain GC 6189)
0.25 µg/mL: MIC Streptococcus pneumoniae (ATCC 6301) (Streptococcus sp.) | MIC Streptococcus pneumoniae (GC 4565) (Streptococcus sp.) | MIC Streptococcus pneumoniae (ATCC 6301) (Streptococcus sp.; inoculum 5×10^5 CFU/mL, strain ATCC 6301) | MIC Streptococcus pneumoniae (GC 4565) (Streptococcus sp.; inoculum 5×10^5 CFU/mL, strain GC 4565)
2 µg/mL: MIC Staphylococcus aureus (ATCC 29213) (Staphylococcus sp.) | MIC Staphylococcus aureus (GC 1131) (Staphylococcus sp.) | MIC Staphylococcus aureus (GC 3051) (Staphylococcus sp.) | MIC Staphylococcus aureus (GC 3053) (Staphylococcus sp.) | MIC Staphylococcus aureus-SMITH (GC 4543) (Staphylococcus sp.) | MIC Staphylococcus aureus (GC 4544) (Staphylococcus sp.) | MIC Coagulase Negative Staphylococcus (GC 4547) (Staphylococcus sp.) | MIC Coagulase Negative Staphylococcus (GC 4551) (Staphylococcus sp.) | MIC Escherichia coli (GC 4560) (Escherichia coli)
<0.06 µg/mL: MIC Streptococcus pneumoniae (GC 1894) (Streptococcus sp.) | MIC Streptococcus pneumoniae (GC 1894) (Streptococcus sp.; inoculum 5×10^5 CFU/mL, strain GC 1894)
1 µg/mL: MIC Staphylococcus aureus (GC 4541) (Staphylococcus sp.) | MIC Staphylococcus aureus (GC 4542) (Staphylococcus sp.) | MIC Staphylococcus aureus (GC 4545) (Staphylococcus sp.) | MIC Staphylococcus haemolyticus (GC 4546) (Staphylococcus sp.) | MIC Coagulase Negative Staphylococcus (GC 4548) (Staphylococcus sp.) | MIC Coagulase Negative Staphylococcus (GC 4549) (Staphylococcus sp.) | MIC Coagulase Negative Staphylococcus (GC 6257) (Staphylococcus sp.)
32 µg/mL: MIC Escherichia coli (ATCC 25922) (Escherichia coli)
0.5 µg/mL: MIC Streptococcus agalactiae (GC 4564) (Streptococcus sp.) | MIC Streptococcus pyogenes (GC 4563) (Streptococcus sp.) | MIC Streptococcus pyogenes (GC 4563) (Streptococcus sp.; inoculum 5×10^5 CFU/mL, strain GC 4563) | MIC Streptococcus agalactiae (GC 4564) (Streptococcus sp.; inoculum 5×10^5 CFU/mL, strain GC 4564)

COc1cc(-c2nc3cc(CC4NC(=O)C(C(C)c5ccccc5)NC(=O)CNC(=O)C(CO)NC(=O)C(C(O)C5CNC(=N)N5C5OC(CO)C(O)C(O)C5O)NC(=O)C(C(O)C5CNC(=N)N5)NC4=O)ccc3o2)cc(OC)c1OC (stereo not drawn) [Example 34, Cyclo[3-[2-(3,4,5-trimethoxyphenyl)-1,3-benzoxazol-5-yl]alanyl-3-(2-iminoimidazolidin-4-yl)seryl-3-(3-hexopyranosyl-2-iminoimidazolidin-4-yl)serylserylglycyl-β-methylphenyl-alanyl]]
16 µg/mL: MIC Staphylococcus aureus (GC 3051) (Staphylococcus sp.) | MIC Staphylococcus aureus-SMITH (GC 4543) (Staphylococcus sp.) | MIC Staphylococcus aureus (GC 4544) (Staphylococcus sp.) | MIC Coagulase Negative Staphylococcus (GC 4547) (Staphylococcus sp.) | MIC Coagulase Negative Staphylococcus (GC 4548) (Staphylococcus sp.) | MIC Enterococcus avium (GC 4558) (Enterococcus sp.; strain GC 4558) | MIC Streptococcus pneumoniae (GC 1894) (Streptococcus sp.; strain GC 1894) | MIC Escherichia coli (GC 4560) (Escherichia coli; strain GC 4560, broth dilution)
32 µg/mL: MIC Staphylococcus aureus (ATCC 29213) (Staphylococcus sp.) | MIC Staphylococcus aureus (GC 1131) (Staphylococcus sp.) | MIC Staphylococcus aureus (GC 3053) (Staphylococcus sp.) | MIC Staphylococcus aureus (GC 4541) (Staphylococcus sp.) | MIC Staphylococcus aureus (GC 4542) (Staphylococcus sp.) | MIC Staphylococcus aureus (GC 4545) (Staphylococcus sp.) | MIC Coagulase Negative Staphylococcus (GC 4551) (Staphylococcus sp.) | MIC Enterococcus faecalis (GC 2242) (Enterococcus sp.; strain GC 2242) | MIC Enterococcus faecium (GC 2243) (Enterococcus sp.; strain GC 2243) | MIC Enterococcus faecalis (GC 2691) (Enterococcus sp.; strain GC 2691) | MIC Enterococcus faecalis (GC 3059) (Enterococcus sp.; strain GC 3059) | MIC Enterococcus faecalis (GC 4552) (Enterococcus sp.; strain GC 4552) | MIC Enterococcus faecalis (GC 4553) (Enterococcus sp.; strain GC 4553) | MIC Enterococcus faecalis (GC 4554) (Enterococcus sp.; strain GC 4554) | MIC Streptococcus pneumoniae (ATCC 6301) (Streptococcus sp.; strain ATCC 6301) | MIC Streptococcus agalactiae (GC 4564) (Streptococcus sp.; strain GC 4564) | MIC Streptococcus pneumoniae (GC 4565) (Streptococcus sp.; strain GC 4565)
64 µg/mL: MIC Enterococcus faecalis (ATCC 29212) (Enterococcus sp.; strain ATCC 29212) | MIC Enterococcus faecium (GC 4556) (Enterococcus sp.; strain GC 4556) | MIC Enterococcus faecalis (GC 6189) (Enterococcus sp.; strain GC 6189) | MIC Escherichia coli (ATCC 25922) (Escherichia coli; strain ATCC 25922, broth dilution) | MIC Escherichia coli (GC 4559) (Escherichia coli; strain GC 4559, broth dilution)
8 µg/mL: MIC Staphylococcus haemolyticus (GC 4546) (Staphylococcus sp.) | MIC Coagulase Negative Staphylococcus (GC 6257) (Staphylococcus sp.) | MIC Enterococcus faecium (GC 4557) (Enterococcus sp.; strain GC 4557) | MIC Streptococcus pyogenes (GC 4563) (Streptococcus sp.; strain GC 4563)
4 µg/mL: MIC Coagulase Negative Staphylococcus (GC 4549) (Staphylococcus sp.)
